From PubChem BioAssay AID238 (DTP/NCI, 2004)
“And” between values parts separate entries of the source, which are not always exact repeats. Equal values may be shown once. Toxic doses and inconclusive results are not listed.

Tested on: CAF1 mice, leiomyosarcoma No.2 ip, survival T/C%
Test: NCI In Vivo Anticancer Drug Screen. Data for tumor model Leiomyosarcoma (No. 2) (intraperitoneal) in CAF1 mice
Conditions: endpoint: mean survival time, higher = longer survival
Protocol: The antitumor activity of compounds was measured in mice bearing transplantable tumors. Survival or tumor size were measured and the results are expressed as the measurement made in the treated group (T) divided by the measurement made in the vehicle treated control group (C). The tumor model used in this assay is Leiomyosarcoma (No. 2) (intraperitoneal) in CAF1 mice

[1] = dose: 6.25 mg/kg/injection, schedule: Q01DX010 (ip), vehicle: saline
[2] = dose: 12.5 mg/kg/injection, schedule: Q01DX010 (ip), vehicle: saline
[3] = dose: 25.0 mg/kg/injection, schedule: Q01DX010 (ip), vehicle: saline
[4] = dose: 50.0 mg/kg/injection, schedule: Q01DX010 (ip), vehicle: saline
[5] = dose: 100.0 mg/kg/injection, schedule: Q01DX010 (ip), vehicle: saline
[6] = dose: 200.0 mg/kg/injection, schedule: Q01DX010 (ip), vehicle: saline
[7] = dose: 6.0 mg/kg/injection, schedule: Q01DX010 (ip), vehicle: saline
[8] = dose: 8.0 mg/kg/injection, schedule: Q01DX010 (ip), vehicle: saline
[9] = dose: 125.0 mg/kg/injection, schedule: Q01DX010 (ip), vehicle: saline
[10] = dose: 250.0 mg/kg/injection, schedule: Q01DX010 (ip), vehicle: saline
[11] = dose: 16.0 mg/kg/injection, schedule: Q01DX010 (ip), vehicle: saline
[12] = dose: 62.5 mg/kg/injection, schedule: Q01DX010 (ip), vehicle: saline

CN(C)c1ccc(Nc2c3ccccc3nc3ccccc23)cc1
T/C (dose: 36.0 mg/kg/injection, schedule: Q01DX010 (ip), vehicle: saline): 121 % of control | T/C (dose: 54.0 mg/kg/injection, schedule: Q01DX010 (ip), vehicle: saline): 121 % of control | T/C (dose: 80.0 mg/kg/injection, schedule: Q01DX010 (ip), vehicle: saline): 300 % of control | T/C (dose: 120.0 mg/kg/injection, schedule: Q01DX010 (ip), vehicle: saline): 300 % of control

CS(=O)(=O)OCCCCOS(C)(=O)=O
T/C [1]: 100 % of control | T/C [2]: 96 % of control and 123 % of control | T/C [3]: 103 % of control | T/C [4]: 86 % of control

C=C1C[C@H]2[C@@H]3C=C(C)C4=CC(=O)CC[C@]4(C)[C@H]3CC[C@]2(C)[C@@]1(OC(C)=O)C(C)=O
T/C (dose: 62.5 mg/kg/injection, schedule: Q01DX010 (sc), vehicle: steriod suspending solution): 113 % of control | T/C (dose: 125.0 mg/kg/injection, schedule: Q01DX010 (sc), vehicle: steriod suspending solution): 102 % of control | T/C (dose: 250.0 mg/kg/injection, schedule: Q01DX010 (sc), vehicle: steriod suspending solution): 89 % of control | T/C (dose: 500.0 mg/kg/injection, schedule: Q01DX010 (sc), vehicle: steriod suspending solution): 94 % of control

CS(=O)(=O)OCC(O)C(O)C(O)C(O)COS(C)(=O)=O (stereo unspecified)
T/C [3]: 104 % of control | T/C [4]: 109 % of control and 113 % of control | T/C [5]: 118 % of control | T/C [6]: 118 % of control

Nc1ncnc2[nH]ncc12
T/C (dose: 1.5 mg/kg/injection, schedule: Q01DX010 (ip), vehicle: saline): 107 % of control and 112 % of control | T/C (dose: 3.0 mg/kg/injection, schedule: Q01DX010 (ip), vehicle: saline): 103 % of control and 108 % of control | T/C [7]: 96 % of control and 100 % of control | T/C (dose: 12.0 mg/kg/injection, schedule: Q01DX010 (ip), vehicle: saline): 88 % of control and 95 % of control

O=c1[nH]c(=O)n(C2CC(O)C(CO)O2)cc1F (stereo unspecified)
T/C (dose: 5.0 mg/kg/injection, schedule: Q01DX010 (ip), vehicle: saline): 118 % of control | T/C (dose: 10.0 mg/kg/injection, schedule: Q01DX010 (ip), vehicle: saline): 118 % of control

CS(=O)(=O)OCCCl
T/C (dose: 18.8 mg/kg/injection, schedule: Q01DX010 (ip), vehicle: saline): 100 % of control | T/C (dose: 37.5 mg/kg/injection, schedule: Q01DX010 (ip), vehicle: saline): 111 % of control | T/C (dose: 75.0 mg/kg/injection, schedule: Q01DX010 (ip), vehicle: saline): 116 % of control | T/C (dose: 150.0 mg/kg/injection, schedule: Q01DX010 (ip), vehicle: saline): 220 % of control and 269 % of control

O=C(Nc1ccc(C2=NCCN2)cc1)c1ccc(C(=O)Nc2ccc(C3=NCCN3)cc2)c([N+](=O)[O-])c1
T/C [7]: 121 % of control | T/C [8]: 113 % of control

CCCSc1ncnc2nc[nH]c12
T/C (dose: 31.3 mg/kg/injection, schedule: Q01DX010 (ip), vehicle: saline): 189 % of control and 233 % of control | T/C [9]: 103 % of control and 117 % of control | T/C [10]: 103 % of control

COS(C)(=O)=O
T/C [2]: 108 % of control | T/C [3]: 108 % of control | T/C [4]: 112 % of control

C1CN1c1nc(N2CC2)nc(N2CC2)n1
T/C (dose: 0.13 mg/kg/injection, schedule: Q01DX010 (ip), vehicle: saline): 117 % of control | T/C (dose: 0.25 mg/kg/injection, schedule: Q01DX010 (ip), vehicle: saline): 121 % of control | T/C (dose: 0.5 mg/kg/injection, schedule: Q01DX010 (ip), vehicle: saline): 196 % of control and 233 % of control

Nc1nc(SCc2ccccc2)c2[nH]cnc2n1
T/C [8]: 112 % of control and 115 % of control | T/C [11]: 100 % of control | T/C (dose: 32.0 mg/kg/injection, schedule: Q01DX010 (ip), vehicle: saline): 107 % of control and 120 % of control | T/C (dose: 64.0 mg/kg/injection, schedule: Q01DX010 (ip), vehicle: saline): 103 % of control and 104 % of control

CC(=O)N(C)C
T/C [12]: 90 % of control | T/C [10]: 96 % of control

C[C@]12C=CC(=O)C=C1CC[C@@H]1[C@@H]2[C@@H](O)C[C@@]2(C)[C@H]1CC[C@]2(O)C(=O)CO
T/C (dose: 12.5 mg/kg/injection, schedule: Q01DX010 (sc), vehicle: steriod suspending solution): 86 % of control and 107 % of control | T/C (dose: 25.0 mg/kg/injection, schedule: Q01DX010 (sc), vehicle: steriod suspending solution): 92 % of control and 93 % of control | T/C (dose: 50.0 mg/kg/injection, schedule: Q01DX010 (sc), vehicle: steriod suspending solution): 100 % of control and 107 % of control

O=C(Nc1ccc(NC2=NCCN2)cc1)c1ccc(C(=O)Nc2ccc(NC3=NCCN3)cc2)cc1
T/C (dose: 2.0 mg/kg/injection, schedule: Q01DX010 (ip), vehicle: saline): 103 % of control and 123 % of control | T/C [8]: 123 % of control | T/C [11]: 107 % of control

O=NN(CCCl)C(=O)NCCCl
T/C (dose: 3.13 mg/kg/injection, schedule: Q01DX010 (ip), vehicle: saline): 300 % of control | T/C [1]: 258 % of control and 300 % of control | T/C [2]: 115 % of control and 120 % of control

CN(C)/N=N/c1nc[nH]c1C(N)=O
T/C [3]: 109 % of control | T/C [4]: 109 % of control and 113 % of control | T/C [5]: 118 % of control | T/C [6]: 163 % of control | T/C (dose: 400.0 mg/kg/injection, schedule: Q01DX010 (ip), vehicle: saline): 86 % of control

O=c1cn[nH]c(=O)[nH]1
T/C [12]: 114 % of control | T/C [9]: 90 % of control and 106 % of control | T/C [10]: 92 % of control and 107 % of control | T/C (dose: 500.0 mg/kg/injection, schedule: Q01DX010 (ip), vehicle: saline): 96 % of control
